For this test, the target named is T1, FSH receptor (Homo sapiens, UniProt P23945).
T1 construct: expressed in transfected cells; host or cells: AV12 cells (stably transfected)
T1 sequence (P23945 18-695): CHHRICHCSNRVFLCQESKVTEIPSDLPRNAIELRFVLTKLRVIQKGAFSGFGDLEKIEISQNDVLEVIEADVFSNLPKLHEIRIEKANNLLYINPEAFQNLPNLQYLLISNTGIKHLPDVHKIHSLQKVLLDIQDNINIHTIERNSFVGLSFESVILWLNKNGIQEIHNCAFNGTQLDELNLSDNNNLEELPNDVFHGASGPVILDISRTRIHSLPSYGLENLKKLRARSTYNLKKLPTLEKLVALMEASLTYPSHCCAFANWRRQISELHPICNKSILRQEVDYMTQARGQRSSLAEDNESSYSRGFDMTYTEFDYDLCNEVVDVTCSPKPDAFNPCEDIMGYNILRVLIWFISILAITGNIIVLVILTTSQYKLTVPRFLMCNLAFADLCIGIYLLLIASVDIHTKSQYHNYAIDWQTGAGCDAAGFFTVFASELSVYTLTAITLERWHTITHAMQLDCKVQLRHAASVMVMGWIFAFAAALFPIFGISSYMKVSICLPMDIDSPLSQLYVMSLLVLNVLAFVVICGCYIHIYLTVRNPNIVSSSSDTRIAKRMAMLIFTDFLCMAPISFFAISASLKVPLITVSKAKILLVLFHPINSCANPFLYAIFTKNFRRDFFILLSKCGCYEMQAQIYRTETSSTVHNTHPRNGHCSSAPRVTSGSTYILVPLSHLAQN
In words: cAMP Whole Cell assay (AlphaScreen cAMP detection) in AV12 cells stably transfected with FSH receptor. The format is cell-based. The following applies: AV12 cells expressing FSH receptor; average of two (2) trials. On the procedure:
Compounds of the invention were tested for their ability to activate an FSH receptor protein using an AlphaScreen cAMP detection kit (Perkin Elmer; Cat. No. 6760600R).
AV12 cells stably transfected with an expression vector containing an FSH construct and cultured under conditions permissive for cell surface expression of the encoded FSH receptor were harvested from flasks via non-enzymatic means. The cells were washed in PBS and resuspended in Stimulation Buffer. Live cells were counted using a hemacytometer and Trypan blue exclusion, and the cell concentration was adjusted to 2×10^5 cells/ml. A cAMP standard curve in buffer was prepared with a high final concentration of 1 μM, and serially diluted 1:5 in buffer (10 μL/well). Candidate compounds identified as per above (if frozen, thawed at room temperature) were added to their respective wells (in a 384-well plate) at increasing concentrations (5 μL/well; 10 μM final top assay concentration). To these wells, 2,000 cells in 10 μl of Buffer were added and the mixture as well as 5 μL of cAMP Acceptor Beads in Stimulation Buffer. Following a 30 minute incubation, 5 μL of Donor Bead/Biotinylated cAMP was added to each well, followed by incubation at RT for 2 hours. Plates were read in a Perkin Elmer AlphaQuest™ plate reader per manufacturer instructions.
A general note: In Alpha technology, singlet oxygen from a donor bead excites a nearby acceptor bead.

EC50 data for one compound are collected here from patent US20080004263A1, “Ligands of Follicle Stimulating Hormone Receptor and Methods of Use Thereof” (priority 2004, published 2008).

Usually EC50 stands for the concentration giving half of the maximal effect. High values mean a less potent agent, low ones a more potent agent.

In turn, `Cc1onc(-c2cccc(-c3ccc(-c4nnn[nH]4)cc3)c2)c1-c1csc(C2CCN(C(=O)Cc3cccs3)CC2)n1` [Example 38, 1-[4-(4-{5-Methyl-3-[4′-(1H-tetrazol-5-yl)-biphenyl-3-yl]-isoxazol-4-yl}-thiazol-2-yl)-piperidin-1-yl]-2-thiophen-2-yl-ethanone] displayed an EC50 of 1100 nM.
